# Test results as given in US8710098B2, “Group of amino substituted benzoyl derivatives and their preparation and their use” (priority 2008, dated 2014).
# Molecular target: T1, hA3G degradation mediated by HIV-1 Vif (UniProt P69723+Q9HC16)
# T1 construct: expressed in transfected cells
# Test: Screening experiment for up-regulation activity to hA3G (YFP-fused hA3G co-expressed with HIV-1 Vif, fluorescence)
# Type: cell-based, human
# Conditions: YFP fluorescence of cells co-expressing Vif and hA3G-YFP; excitation 485 nm, detection 520 nm; averages of duplicates
# From the text: Based on the advances making research on the hA3G degradation mediated by HIV-1 Vif, this invention establishes a high throughput anti-HIV-1 drug screening model using hA3G degradation mediated by HIV-1 Vif as target, to screen small molecule active compounds capable of inhibiting this degradation process. The function principle of this model is that HIV-1 Vif protein and hA3G fused yellow fluorescent protein (YFP) co-expressed in the cells, then the intracellular fluorescence intensity (at […]) decreases owing to the degradation of hA3G caused by Vif and subsequent degradation of YEP fused on hA3G. By means of measuring the change of fluorescent intensity, the influence of the screened compounds on the degradation of hA3G caused by Vif can quantitatively be analyzed. Simultaneously, to differentiate the non-specific inhibitory effect of diverse ubiquitin degradation route in the samples, this invention establishes a recheck model based on the detection of P53 degradation caused by the product of adenovirus early gene, to assure that the positive samples screened out by the proposed model can specifically block the degradation of hA3G caused by Vif.
# Screening Experiment for Up-Regulation Activity to hA3G
# The cells are picked up and cultured a culture bottle. When the cells grow full of the culture bottle, old culture medium is discarded and the cells are digested with digestion medium. When the cells turn round, the digestion medium is discarded and the culture medium is added in at once, the bottom of the bottle is gently blown with a pipette to make the cells disengage the bottle bottom and disperse into single cell suspension. After counting the cells using blood cell counting chamber, the cell suspension is inoculated into a culture dish for transfection. The medium containing the plasmid to be transfected and the transfection reagents is gently mixed up and incubated at room temperature. The medium is then added into the supernatant of the cell culture and cultured for a certain period of time. The old culture medium is then sucked out, the cells are digested with digestive medium, the digestive medium is subsequently discarded and culture medium is immediately added. The medium is gently blown to disperse the cells into single cell suspension. After counting the cells using blood cell counting chamber, the cells are ready for inoculation.
# Samples of compounds[…]Pure tested compounds are dissolved in DMSO, the solution is diluted with equal proportional distilled water. The diluent is used to test the cell systems.
# Sample solution of different concentration is added into the supernatant of a cell culture. After the cells are continuously cultured, old culture medium is sucked out and the cells are blown with PBS buffer until the cells completely disengage from the culture bottle.
# The fluorescence intensity values of the cell suspension with test compound samples, positive control samples and negative control samples are respectively measured with fluorometer, the excitation wavelength is 485 nm and the detection wavelength 520 nm. Averages of duplicated measurements are taken as the results.
# The measured fluorescence intensity values of the negative control samples (blink sample) subtracted from those of test compound samples, the results are taken as YFP fluorescence of different groups. Relative fluorescence intensity=fluorescence intensity of a test sample group/fluorescence intensity of the positive control group×100% Inhibition rate of degradation=(test sample group−negative control group)/(positive control group−negative control group)×100%
# T1 sequence (P69723 whole entry): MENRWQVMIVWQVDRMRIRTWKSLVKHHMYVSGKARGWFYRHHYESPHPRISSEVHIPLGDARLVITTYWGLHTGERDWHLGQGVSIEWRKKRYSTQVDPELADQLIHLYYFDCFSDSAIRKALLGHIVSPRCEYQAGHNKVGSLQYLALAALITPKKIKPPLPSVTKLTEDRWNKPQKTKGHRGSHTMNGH
# T1 sequence (Q9HC16 whole entry): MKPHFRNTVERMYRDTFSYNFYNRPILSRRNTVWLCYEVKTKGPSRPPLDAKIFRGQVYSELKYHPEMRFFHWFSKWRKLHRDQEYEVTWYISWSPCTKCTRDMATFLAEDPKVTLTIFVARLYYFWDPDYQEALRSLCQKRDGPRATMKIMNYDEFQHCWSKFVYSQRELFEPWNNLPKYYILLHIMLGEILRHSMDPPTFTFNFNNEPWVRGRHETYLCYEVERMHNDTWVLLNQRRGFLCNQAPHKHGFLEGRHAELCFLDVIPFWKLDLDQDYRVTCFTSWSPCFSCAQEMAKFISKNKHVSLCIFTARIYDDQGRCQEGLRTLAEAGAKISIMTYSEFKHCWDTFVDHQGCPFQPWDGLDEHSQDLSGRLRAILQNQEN
row,Structure (SMILES),hA3G up-regulation activity (%)
1,COc1ccc(C(=O)Cc2cc(OC)c(OC)c(OC)c2)cc1NC(=O)CCl [Compound 28],33.6
2,COc1ccc(C(=O)Nc2cc(OC)c(OC)c(OC)c2)cc1NC(=O)CBr [Compound 29],25.3
3,COc1ccc(C(=O)Oc2cc(OC)c(OC)c(OC)c2)cc1NC(=O)CBr [Compound 30],15.2
4,CCC(Br)C(=O)Nc1cc(C(=O)Nc2cc(OC)c(OC)c(OC)c2)ccc1OC (centres unmarked) [Compound 31],26.4
5,"CCC(=O)Nc1cc(C(O)Cc2cc(OC)c(OC)c(OC)c2)ccc1OC (centres unmarked) [Compound 32, 1-(3′-propionamido-4′-methoxyphenyl)-2-(3″,4″,5″-trimethoxyphenyl)ethanol]",17.6
6,CCC(=O)Nc1cc(C(=O)Nc2cc(OC)nc(OC)n2)ccc1OC [Compound 33],21.5
7,CNc1cc(C(=O)Nc2cc(OC)c(OC)c(OC)c2)ccc1O [Compound 34],38.3
8,CCNc1cc(C(=O)Nc2ccc(OC)c(OC)c2)ccc1OC [Compound 36],8.6
9,CCNc1cc(C(=O)Nc2ccc(OC)cc2)ccc1OC [Compound 37],7.7
10,"CNc1cc(C(=O)Nc2cc(OC)cc(OC)c2)ccc1OC [Compound 40, N-(3′,5′-dimethoxyphenyl)-3-methylamino-4-methoxybenzamide]",12.7
11,COc1cc(NC(=O)c2ccc(OC)c(N(C)C)c2)cc(OC)c1 [Compound 41],21.8
12,CCNc1cc(C(=O)Nc2ccc(OC)cc2)ccc1OC [Compound 42],34.3
13,COc1ccc(NC(=O)c2ccc(OC)c(NC(C)C)c2)cc1 [Compound 43],26.4
14,CNc1cc(CNc2cc(OC)c(OC)c(OC)c2)ccc1OC [Compound 45],27.6
15,CCC(=O)Nc1cc(C(=O)Nc2cccc(OC)c2)ccc1OC [Compound 46],29.1
16,CCC(=O)Nc1cc(C(=O)Nc2cc(OC)ncn2)ccc1OC [Compound 47],18.2
17,"CCC(=O)Nc1cc(C(=O)Nc2cc(OC)co2)ccc1OC [Compound 48, N-(4′-methoxyfuryl-2′-)-4-methoxy-3-propionamidobenzamide]",16.4
18,"CCC(=O)Nc1cc(C(=O)Nc2cc(OC)c[nH]2)ccc1OC [Compound 49, N-(4′-methoxypyrryl-2′-)-4-methoxy-3-propionamidobenzamide]",9.8
19,CCC(=O)Nc1cc(C(=O)Nc2cccc(O)c2)ccc1OC [Compound 50],−3.1
20,CCC(=O)Nc1cc(C(=O)Nc2ccnc(O)c2)ccc1OC [Compound 51],0.9
21,CCC(=O)Nc1cc(C(=O)Nc2cc(OC)c(O)c(OC)c2)ccc1OC [Compound 58],16.6
22,CCC(=O)Nc1cc(NC(=O)c2cc(OC)c(OC)c(OC)c2)ccc1OC [Compound 59],19.8
23,CCC(=O)Nc1cc(C(=O)Nc2ccccc2)ccc1OC [Compound 60],16.3
24,"CCC(=O)Nc1cc(C(=O)Nc2ccncn2)ccc1OC [Compound 61, N-(pyrimidyl-4′-)-4-methoxy-3-propionamidobenzamide]",11.8

row,Structure (SMILES),hA3G up-regulation activity (%)
1,CCC(=O)Nc1cc(OC(=O)c2cc(OC)c(OC)c(OC)c2)ccc1OC [Compound 62],40.1
2,"CCC(=O)Nc1cc(OC)ccc1C(=O)Nc1cc(OC)c(OC)c(OC)c1 [Compound 63, N-(3′,4′,5′-trimethoxyphenyl)-2-propionamido-4-methoxybenzamide]",21.3
3,"CCC(=O)Nc1ccc(C(=O)Nc2cc(OC)c(OC)c(OC)c2)cc1OC [Compound 64, N-(3′,4′,5′-trimethoxyphenyl)-3-methoxy-4-propionamidobenzamide]",11.7
4,CCC(=O)Nc1cc(C(=O)Nc2ccc(OC(F)(F)F)cc2)ccc1OC [Compound 67],11.3
5,"COc1ccc(C(=O)Nc2cc(OC)c(OC)c(OC)c2)cc1C#N [Compound 68, N-(3′,4′,5′-trimethoxyphenyl)-3-cyano-4-methoxybenzamide]",9.8
6,"CCC(=O)Nc1cc(C(=O)Nc2ccc(OC(F)(F)F)cc2)ccc1C [Compound 69, N-(4′-trifluoromethoxyphenyl)-3-propionamido-4-methylbenzamide]",31.2
7,CCC(=O)Nc1cc(C(=O)Nc2ccc(OC(F)(F)F)cc2)ccc1F [Compound 70],24.7
8,COc1cc(OC(=O)c2cc(Cl)cc(NC(C)=O)c2)cc(OC)c1OC [Compound 72],24.3
9,"COc1cc(OC(=O)c2cc(NC(C)=O)cc(C(F)(F)F)c2)cc(OC)c1OC [Compound 73, 3′,4′,5′-trimethoxyphenyl 3-acetamido-5-trifluoromethylbenzoate]",29.0
10,COc1cc(NC(=O)c2cc(NC(C)=O)cc(C(F)(F)F)c2)cc(OC)c1OC [Compound 74],8.5
11,"CCC(=O)Nc1cc(C(=O)Nc2cc(OC)c(OC)c(OC)c2)cc(OC)c1F [Compound 75, N-(3′,4′,5′-trimethoxyphenyl)-3-propionamido-4-fluoro-5-methoxybenzamide]",−1.1
12,CCC(=O)Nc1cc(C(=O)Nc2cc(OC)c(OC)c(OC)c2)cc(F)c1OC [Compound 77],14.9
13,CCC(=O)Nc1cc(C(=O)Nc2ccc(OC)c(F)c2)ccc1OC [Compound 78],8.8
14,"CCC(=O)Nc1cc(C(=O)Nc2cc(OC)c(OC)c(OC)c2)c(F)cc1OC [Compound 79, N-(3′,4′,5′-trimethoxyphenyl)-3-propionamido-4-methoxy-6-fluorobenzamide]",21.6
15,"CCC(=O)Nc1cc(C(=O)Nc2ccc(N)c(F)c2)ccc1OC [Compound 80, N-(3′-fluoro-4′-aminophenyl)-3-propionamido-4-methoxybenzamide]",37.1
16,CCC(=O)Nc1cc(C(=O)Nc2cc(OC)c(NC)c(OC)c2)ccc1OC [Compound 81],14.4
17,CCC(=O)Nc1cc([S+]([O-])Nc2cc(OC)c(OC)c(OC)c2)ccc1OC (centres unmarked) [Compound 82],28.5
18,"CCC(=O)Nc1cc(S(=O)(=O)Nc2cc(OC)c(OC)c(OC)c2)ccc1OC [Compound 83, N-(3′,4′,5′-trimethoxyphenyl) 3-propionamido-4-methoxybenzenesulfamide]",31.0
19,"CCC(=O)Nc1cc(S(=O)(=O)Oc2cc(OC)c(OC)c(OC)c2)ccc1OC [Compound 84, 3′,4′,5′-trimethoxyphenyl 3-propionamido-4-methoxybenzenesulfonate]",9.0
20,"COc1ccc(S(=O)(=O)Nc2cc(OC)c(OC)c(OC)c2)cc1N [Compound 85, N-(3′,4′,5′-trimethoxyphenyl)-3-amino-4-methoxybenzenesulfonamide]",6.8
21,CCC(=O)Oc1cc(C(=O)Nc2cc(OC)c(OC)c(OC)c2)ccc1OC [Compound 86],20.3
22,"COc1ccc(C(=O)Nc2cc(OC)c(OC)c(OC)c2)cc1O [Compound 87, N-(3′,4′,5′-trimethoxyphenyl)-3-hydroxyl-4-methoxybenzamide]",19.7
23,CCC(=O)Nc1cc(NNc2cc(OC)c(OC)c(OC)c2)ccc1OC [Compound 89],31.3
